Where only a bound is given, the exact number is not on record here.

The first test relates to PTZ-treated mice. Kind of test: Acute PTZ method (pentylenetetrazol-induced seizure assay). The format is in vivo. The following applies: Mus musculus, lowest dose with significant effect on latency to tonic seizures, PO, read-out: Anticonvulsive Effect Dose (minimal effective anticonvulsant dose). Here is the method: The anticonvulsant effect of test compounds were assessed in a pentylenetetazol-induced seizure assay in mice similar to methods described in Giardina & Gasior (Curr Protoc Pharmacol. 2009). Male CD-1 mice were housed in groups of five under controlled conditions (temperature of 22±2° C. and 12:12 light-dark cycle, lights on at 8:00 am) and water and food were available ad libitum. The mice were housed for 1 week prior to behavioral testing, at which time they weighed 25-35 g. Pentylenetetrazol (PTZ, Sigma) was dissolved in sterile 0.9% saline at a concentration of 12 mg/mL concentration for subcutaneous administration. Test compounds were formulated and administered via oral gavage or intraperitoneal injection at a predetermined time-point (typically 30 or 60 minutes) prior to PTZ injection. All solutions were made fresh and given in a volume corresponding to 10 ml/kg body weight.
Mice were acclimated to the test room for at least 30 min before compound administration. Mice were randomized into at least four test groups (vehicle and at least three doses of the test compound) with 10 mice per group. […] Following the drug pretreatment time the mice were injected s.c. with PTZ (120 mg/kg). Immediately following the PTZ injection, mice were individually placed into observation chambers (25×15×15 cm) and a three-channel timer was started. Each mouse was continuously observed for 30 min and the following behaviors were recorded by observers blinded to the treatments: 1) latency to clonic convulsions that persist for 3 sec and followed by an absence of righting reflex 2) latency to tonic convulsions, characterized by the rigid extension of all four limbs that exceeded a 90 degree angle with the body 3) latency to death 4) number of clonic and tonic convulsions. Data are presented as mean±S.E.M and one-way ‘nalysis of vari’nce with Dunnett's or Bonferroni's post-hoc test was used to detect significant differences in latency and number between the vehicle and dose group, p values<0.05 were regarded as statistically significant.
As for `C[C@@]1(O)CC[C@@]2(C)[C@H](CC[C@@H]3[C@@H]2CC[C@]2(C)[C@@H](C(=O)Cn4nccn4)CC[C@@H]32)C1` [Compound 207], the minimal effective dose was at least 5 mg/kg.

In the case of `C[C@@]1(O)CC[C@@]2(C)[C@H](CC[C@@H]3[C@@H]2CC[C@]2(C)[C@@H](C(=O)Cn4nc5cc(F)cc(F)c5n4)CC[C@@H]32)C1` [Compound 28], the minimal effective dose was at most 1 mg/kg.

On to `C[C@@]1(O)CC[C@@]2(C)[C@H](CC[C@@H]3[C@@H]2CC[C@]2(C)[C@@H](C(=O)Cn4ncnn4)CC[C@@H]32)C1` [Compound 54], for which the minimal effective dose was in the range of 1 to 5 mg/kg.

Take `C[C@@]1(O)CC[C@@]2(C)[C@H](CC[C@@H]3[C@@H]2CC[C@]2(C)[C@@H](C(=O)Cn4ccc(C(F)(F)F)n4)CC[C@@H]32)C1` [Compound 19]: the minimal effective dose was at most 1 mg/kg.

As for `Cc1nnn(CC(=O)[C@@H]2CC[C@H]3[C@@H]4CC[C@@H]5C[C@](C)(O)CC[C@]5(C)[C@H]4CC[C@]23C)n1` [Compound 32], the minimal effective dose was at most 1 mg/kg.

Regarding `COC[C@@]1(O)CC[C@@]2(C)[C@@H](CC[C@@H]3[C@@H]2CC[C@]2(C)[C@@H](C(=O)Cn4nnnc4C)CC[C@@H]32)C1` [Compound 193], the minimal effective dose fell in the range of 1 to 5 mg/kg.

As to `Cc1nnn(CC(=O)[C@H]2CC[C@H]3[C@@H]4CC[C@H]5C[C@](C)(O)CC[C@]5(C)[C@H]4CC[C@]23C)n1` [Compound 206], the minimal effective dose is at most 1 mg/kg.

In the case of `Cc1nnnn1CC(=O)[C@H]1CC[C@H]2[C@@H]3CC[C@@H]4C[C@](C)(O)CC[C@]4(C)[C@H]3CC[C@]12C` [Compound 31], the minimal effective dose was at least 5 mg/kg.

For `COC[C@@]1(O)CC[C@@]2(C)[C@@H](CC[C@@H]3[C@@H]2CC[C@]2(C)[C@@H](C(=O)Cn4nnc(C)n4)CC[C@@H]32)C1` [Compound 194], the minimal effective dose was at most 1 mg/kg.

The next test addresses α4β3δ GABAA receptors (Homo sapiens (Human), UniProt P28472+P48169). Kind of test: Patch clamp electrophysiology (manual patch) of recombinant α4β3δ GABAA receptors in CHO cells. The conditions noted are these: 10 μM test article, GABA EC20 = 2 μM, read-out: GABA (α4β3δ) Manual patch in CHO, % efficacy at 10 μM. The format is cell-based. The procedure: (§1) Cellular electrophysiology is used to measure the pharmacological properties of our GABAA receptor modulators in heterologous cell systems. Each compound is tested for its ability to affect GABA mediated currents at a suhmaximal agonist dose (GABA EC20=2 μM). LTK cells are stably transfected with the α1β2γ2 subunits of the GABA receptor and CHO cells are transiently transfected with the α4β3δ subunits via the Lipofecatamine method. Cells were passaged at a confluence of about 50-80% and then seeded onto 35 mm sterile culture dishes containing 2 ml culture complete medium without antibiotics or antimycotics. Confluent clusters of cells are electrically coupled (Pritchett et al., Science, 1988, 242, 1306-1308). Because responses in distant cells are not adequately voltage clamped and because of uncertainties about the extent of coupling (Verdoom et al., Neuron 1990, 4, 919-928), cells were cultivated at a density that enables the recording of single cells (without visible connections to other cells).
(§2) Whole cell currents were measured with HEKA EPC-10 amplifiers using PatchMaster software or by using the high throughput QPatch platform (Sophion). Bath solution for all experiments contained (in mM): NaCl 137 mM, KCl 4 mM, CaCl2 1.8 mM, MgCl2 1 mM, HEPES 10 mM, D-Glucose 10 mM, pH (NaOH) 7.4. In some cases 0.005% cremophor was also added. Intracellular (pipette) solution contained: KCl 130 mM, MgCl2 1 mM, Mg-ATP 5 mM, HEPES 10 mM, EGTA 5 mM, pH 7.2. During experiments, cells and solutions were maintained at room temperature (19° C.-30° C.). For manual patch clamp recordings, cell culture dishes were placed on the dish holder of the microscope and continuously perfused (1 ml/min) with bath solution. After formation of a Gigaohm seal between the patch electrodes and the cell (-ipette resistance range: 2.5 MΩ-6.0 MΩ; seal resistance range:>1 GΩ) the cell membrane across the pipette tip was ruptured to assure electrical access to the cell interior (whole-cell patch-configuration). For experiments using the QPatch system, cells were transferred as suspension to the QPatch system in the bath solution and automated whole cell recordings were performed.
(§3) Cells were voltage clamped at a holding potential of −80 mV. For the analysis of test articles, GABA receptors were stimulated by 2 μM GABA after sequential pre-incubation of increasing concentrations of the test article. Pre-incubation duration was 30 s and the duration of the GABA stimulus was 2s. Test articles were dissolved in DMSO to form stock solutions (10 mM). Test articles were diluted to 0.01, 0.1, 1, and 10 μM in bath solution. All concentrations of test articles were tested on each cell. The relative percentage potentiation was defined as the peak amplitude in response to GABA EC20 in the presence of the test article divided by the peak amplitude in response to GABA EC20 alone, multiplied by 100. For Table 2. GABAA receptors α1β2γ2 and α4β3δ% efficacy: “A” 10-100, “B”>100-500, “C”>500; D indicates the data is not available or has not been determined.
(Patch clamp records ionic current or voltage across a cell membrane.)
Regarding `C[C@@]1(O)CC[C@@]2(C)[C@H](CC[C@@H]3[C@@H]2CC[C@]2(C)[C@@H](C(=O)Cn4nccn4)CC[C@@H]32)C1` [Compound 207], the Emax at 10 µM was above 500%.

Regarding `C[C@@]1(O)CC[C@@]2(C)[C@H](CC[C@@H]3[C@@H]2CC[C@]2(C)[C@@H](C(=O)Cn4ccnc4C#N)CC[C@@H]32)C1` [Compound 143], the Emax at 10 µM is above 500%.

For `C[C@@]1(O)CC[C@@]2(C)[C@H](CC[C@@H]3[C@@H]2CC[C@]2(C)[C@@H](C(=O)Cn4cc(C(F)(F)F)cn4)CC[C@@H]32)C1` [Compound 134], the Emax at 10 µM is above 500%.

As for `C[C@@]1(O)CC[C@@]2(C)[C@@H](CC[C@@H]3[C@@H]2CC[C@]2(C)[C@@H](C(=O)Cn4ncnn4)CC[C@@H]32)C1` [Compound 118], the Emax at 10 µM is above 500%.

Take `C[C@@]1(O)CC[C@@]2(C)[C@@H](CC[C@@H]3[C@@H]2CC[C@]2(C)[C@@H](C(=O)Cn4nnc5cc(F)c(F)cc54)CC[C@@H]32)C1` [Compound 124]: the Emax at 10 µM was above 500%.

With `C[C@@]1(O)CC[C@@]2(C)[C@@H](CC[C@@H]3[C@@H]2CC[C@]2(C)[C@@H](C(=O)Cn4ccc(C#N)n4)CC[C@@H]32)C1` [Compound 121], the Emax at 10 µM was above 500%.

As to `COC[C@@]1(O)CC[C@@]2(C)[C@@H](CC[C@@H]3[C@@H]2CC[C@]2(C)[C@@H](C(=O)Cn4nnnc4C)CC[C@@H]32)C1` [Compound 193], the Emax at 10 µM is above 500%.

Consider `Cc1nnn(CC(=O)[C@H]2CC[C@H]3[C@@H]4CC[C@H]5C[C@](C)(O)CC[C@]5(C)[C@H]4CC[C@]23C)n1` [Compound 206], for which the Emax at 10 µM was above 500%.

In the case of `COC[C@@]1(O)CC[C@@]2(C)[C@@H](CC[C@@H]3[C@@H]2CC[C@]2(C)[C@@H](C(=O)Cn4nnc(C)n4)CC[C@@H]32)C1` [Compound 194], the Emax at 10 µM was above 500%.

Consider `C[C@@]1(O)CC[C@@]2(C)[C@H](CC[C@@H]3[C@@H]2CC[C@]2(C)[C@@H](C(=O)Cn4cc(Cl)cn4)CC[C@@H]32)C1` [Compound 133], for which the Emax at 10 µM is above 500%.

`COC[C@@]1(O)CC[C@@]2(C)[C@@H](CC[C@@H]3[C@@H]2CC[C@]2(C)[C@@H](C(=O)Cn4cc(C#N)cn4)CC[C@@H]32)C1` [Compound 142]: the Emax at 10 µM was above 500%.

The next test deals with α1β2γ2 GABAA receptors (Homo sapiens (Human), UniProt P14867+P47870). Kind of test: Patch clamp electrophysiology (QPatch) of recombinant α1β2γ2 GABAA receptors in LTK cells. The format is cell-based. The following applies: 10 μM test article, GABA EC20 = 2 μM, read-out: GABA (α1β2γ2) Qpatch in Ltk, % efficacy at 10 μM. Here is the method:
as §1, §2, §3
As to `C[C@@]1(O)CC[C@@]2(C)[C@H](CC[C@@H]3[C@@H]2CC[C@]2(C)[C@@H](C(=O)Cn4ccnc4C#N)CC[C@@H]32)C1` [Compound 143], the Emax at 10 µM was above 500%.

As for `C[C@@]1(O)CC[C@@]2(C)[C@H](CC[C@@H]3[C@@H]2CC[C@]2(C)[C@@H](C(=O)Cn4cc(C(F)(F)F)cn4)CC[C@@H]32)C1` [Compound 134], the Emax at 10 µM was above 500%.

For the compound `C[C@@]1(O)CC[C@@]2(C)[C@@H](CC[C@@H]3[C@@H]2CC[C@]2(C)[C@@H](C(=O)Cn4ncnn4)CC[C@@H]32)C1` [Compound 118], the Emax at 10 µM is 100 to 500%.

Take `C[C@@]1(O)CC[C@@]2(C)[C@@H](CC[C@@H]3[C@@H]2CC[C@]2(C)[C@@H](C(=O)Cn4nnc5cc(F)c(F)cc54)CC[C@@H]32)C1` [Compound 124]: the Emax at 10 µM fell in the range of 100 to 500%.

Turning to `C[C@@]1(O)CC[C@@]2(C)[C@@H](CC[C@@H]3[C@@H]2CC[C@]2(C)[C@@H](C(=O)Cn4ccc(C#N)n4)CC[C@@H]32)C1` [Compound 121], the Emax at 10 µM was above 500%.

With `COC[C@@]1(O)CC[C@@]2(C)[C@@H](CC[C@@H]3[C@@H]2CC[C@]2(C)[C@@H](C(=O)Cn4nnnc4C)CC[C@@H]32)C1` [Compound 193], the Emax at 10 µM is above 500%.

On to `C[C@@]1(O)CC[C@@]2(C)[C@H](CC[C@@H]3[C@@H]2CC[C@]2(C)[C@@H](C(=O)Cn4cc(Cl)cn4)CC[C@@H]32)C1` [Compound 133], for which the Emax at 10 µM was 100 to 500%.

In the case of `COC[C@@]1(O)CC[C@@]2(C)[C@@H](CC[C@@H]3[C@@H]2CC[C@]2(C)[C@@H](C(=O)Cn4cc(C#N)cn4)CC[C@@H]32)C1` [Compound 142], the Emax at 10 µM was above 500%.

A word on the minimal effective dose: it is the smallest amount tested that counted as effective.

These data come from US11530237B2, “Compositions and methods for treating CNS disorders” (Sage Therapeutics, Inc., priority 2014, dated 2022).
